Laboratory results from article PMC5282547, “The Proline/Arginine Dipeptide from Hexanucleotide Repeat Expanded C9ORF72 Inhibits the Proteasome” (eNeuro, 2017).
Entries after “also recorded” stand apart in the source; their conditions may differ. Where a SMILES comes first, the peptide text is derived from it. The star is where a group is joined. Cbz = O=C(OCc1ccccc1)*

Columns and labels:
motor neurons [1] = experiment: Motor neuron survival with IU1 co-treatment; type: cell-based, rat
Description: Days in vitro (DIV)14 mixed spinal cord cultures were exposed to PR20 or GR20 by addition of synthetic peptide to the media one time. Cultures were fixed 5 d later with freshly prepared 4% paraformaldehyde for 20 min, washed extensively with 0.1 M PBS, pH 7.4, and immunostained with SMI32 to identify motor neurons. […] Motor neurons were counted in three nonoverlapping, randomly selected fields on a coverslip using a 5[times objective, and the values from a single coverslip averaged.
For experiments involving IU1, DIV14 cultures were treated with PR20 or its vehicle, and every other day, IU1 (or vehicle) was added to the culture media to achieve a final concentration of 5 µM. At DIV19, cultures were fixed and motor neuron number determined as described above.

Dendra2 = experiment: Optical pulse labeling of Dendra2; type: cell-based, rat; conditions: vehicle 29.6 h
Description: (§1) Primary spinal neurons were dissected from E15 rat pups and cultured at a density of 2.5 × 10^5 cells/ml on a laminin/poly-lysine-coated 96-well plate in motor neuron media. Four days after plating, neurons were transfected with Lipofectamine 2000 (Invitrogen). DNA-Lipofectamine mixtures were incubated with neurons for 20 min followed by rinsing. Neurons were then placed in 100 µL of conditioned media that was collected immediately prior to transfection and half fresh motor neuron media containing 4 µM PR20, resulting in a final concentration of 2 µM PR20.
(§2) Optical pulse labeling experiments were performed using an automated microscopy platform previously described by [Arrasate et al. (2004)] and [Barmada et al. (2014)]. A Nikon Eclipse Ti inverted microscope equipped with a PerfectFocus system, 20× objective lens and an Andor iXon3 897 EMCCD camera were used to acquire images. Samples were illuminated with a Sutter Instruments Lamba XL lamp. The microscope and related components were encased in custom-built plexiglass enclosure set to maintain the temperature at 37°C and CO2 at 5%. Semrock GFP and TRITC filters were used for excitation and detection. A Semrock 405-nm long-pass filter was used for photoactivation. Image acquisition and stage movements were accomplished in an automated fashion using µManager and original code written in BeanShell. For all experiments, photoconversion occurred 24 h following transfection. GFP and TRITC images were acquired immediately following activation and subsequently every 2 h for 12 h. Images were acquired in a similar 12-h window starting 48 h after PR20 treatment. Using in-house image analysis scripts, neuronal cell bodies were identified based on their fluorescent intensity and morphology, and a ROI was drawn around the perimeter of each cell at each time. Single-cell TRITC intensity values were recorded and used to fit a first order exponential decay curve for individual neurons and calculate a Dendra2-light chain 3 (LC3) half-life for each cell. […]

Dendra2-LC3 = experiment: Autophagic flux assay, optical pulse labeling of Dendra2-LC3; type: cell-based, rat
Description: as §1, §2

motor neurons [2] = experiment: Motor neuron survival in mixed spinal cord cultures (SMI32 counts), LD50 determination; type: cell-based, rat
Description: Mixed spinal cord neuron cultures were prepared as described previously ([Mojsilovic-Petrovic et al., 2006]). Briefly, an astrocyte feeder layer was prepared from the cortex of newborn Sprague Dawley rat pups [postnatal day 2 (P2)] and grown to ∼80% confluency. Subsequently, dissociated embryonic day 15 (E15) spinal cord neurons were added. One to two days later, AraC ([…]) (catalog #C6645; Sigma) was added for 24 h to arrest astrocyte proliferation. Cultures were maintained in glia-conditioned medium supplemented with the following trophic factors (1.0 ng/ml each): human neurotrophin-3, human neurotrophin-4, human brain-derived neurotrophic factor, and rat ciliary neurotrophic factor (Alomone Labs). Half of the culture medium was replaced on a biweekly basis.
Days in vitro (DIV)14 mixed spinal cord cultures were exposed to PR20 or GR20 by addition of synthetic peptide to the media one time. Cultures were fixed 5 d later with freshly prepared 4% paraformaldehyde for 20 min, washed extensively with 0.1 M PBS, pH 7.4, and immunostained with SMI32 to identify motor neurons. Immunopositive cells >25 µm in diameter are motor neurons based on their costaining for peripherin, ChAT, and islet 1/2 ([Mojsilovic-Petrovic et al., 2006]). Motor neurons were counted in three nonoverlapping, randomly selected fields on a coverslip using a 5[times objective, and the values from a single coverslip averaged. The results of 3-5 independently treated coverslips were the basis and means and variance used in statistical analysis. Each experiment was repeated with independently generated culture 4+ times ([Mojsilovic-Petrovic et al., 2006]).
Motor neuron survival 5 d later was determined. Once the approximate LD50 was determined, we repeated the analysis with more closely spaced concentrations for a more precise definition of the LD50. Determination of the LD50 of MG132 was accomplished in an identical manner.

[3] = tested on: ubiquitin-proteasome system; experiment: MG-132 flux assay (flux of ubiquitylated substrates through the UPS); type: cell-based, rat
Description: MG-132 (Sigma) was used to inhibit proteasomal function. Cells were initially treated with PR20 for a total of 48 h using the method outlined in PR20 treatment for biochemical assays. Four hours prior to lysis, these cells were treated with MG-132 or vehicle. The MG-132 was kept in a stock solution in DMSO. This was added directly to culture to achieve a final concentration of 5 μM. Cells were then lysed in RIPA buffer and immunoblotted for ubiquitin.
Ubiquitin analysis requires the use of deubiquitinase (DUB) inhibitors. Lysis without these inhibitors runs the risk of degradation of the substrates to be targeted. As such, N-ethylmaleimide (Sigma), a potent DUB inhibitor, was used in the lysis buffer. […] The remainder of the lysis procedure follows Cell lysis.
To test for group differences in the flux assay, a permutation test was used. This is a nonparametric statistical test that was implemented in MATLAB. […] The test first quantifies this by taking the average of each experimental group and then finding the difference of ratios. It then permutes two samples located in two groups randomly, and determines that difference between averages again. This is repeated 50,000 times, and a histogram is plotted. This histogram represents the distribution of random noise in the sample. Since a higher difference in the +MG132/−MG132 ratio is a more “significant” result, the percentage of the random noise produced from 50,000 permutations that is higher in magnitude than the true difference (calculated from un-permuted data) is the p value.
Permutations of a data point in a +MG132 into a group labeled −MG132 (or vice versa) were not allowed. […] Thus, this group difference was not interesting to us.

[4] = tested on: U2OS cells and human astrocytes; conditions: cited from earlier work
From the text: The difficulty of distinguishing between toxic HRE mRNA and DPR proteins has impeded our understanding of the mechanism underlying C9ORF72 HRE pathophysiology. As reported in Science ([Kwon et al., 2014]), the McKnight lab devised a strategy to overcome this problem: they studied U2OS cells and human astrocytes directly exposed to synthetic DPR proteins. […] We built upon this approa ...

[5] = tested on: mixed spinal cord cultures; experiment: Cellular accumulation and disposal of HA-tagged DPR (immunoblot of cell lysates, continuous exposure or 2-h pulse-chase)
Description: Confluent dishes of astrocyte neuron cocultures at 37°C had volumes equalized to 2 ml of cell culture media each. Approximately 300 μl of media from each dish was removed and pooled with other dishes, PR20 stock solution was added, and the mixture was then added back to the corresponding culture dish, so that each dish contained a final concentration of 2 μM. All plates were incubated with PR20 for 48 h.
Lysis buffer was prepared containing 1% (v/v) protease inhibitor cocktail, 1% (v/v) PMSF, and 1% (v/v) leucine in 1% RIPA buffer solution on ice. Culture dishes were washed once with ice-cold PBS to remove any remaining media. A total of 125 μl (35-mm dish), 150 μl (6-well plate), or 250 μL (60-mm dish) of lysis buffer was added to each plate, and cells were scraped into a cold 1.5-ml tube. Samples were sonicated for 30 s at 20% intensity, placed on a rotator at 4°C for 20 min, and then centrifuged for 15 min at 13,200 rpm. Supernatant was then removed from each tube for further analysis.
We investigated the fate of PR20 in mixed spinal cord cultures through immunoblotting and immunocytochemistry. […] To gain further insight into the kinetics of the observed decrease in PR20 levels in cell lysates over time, we pulsed cells with 2 µM PR20 for 2 h, washed, replaced with fresh media (lacking PR20), and made cell lysates at regular intervals thereafter. […] To more easily follow GR20 by immunoblotting, we applied 10 µM GR20 to cultures and performed the same kinetic analysis as described in Figure 1D.

[6] = 10 µM in media, continuous exposure

## Cc1cc(C(=O)CN2CCCC2)c(C)n1-c1ccc(F)cc1 [IU1]
Motor neurons [1]; 5 µM IU1, 150 nM MG132, 5 d
  effect of IU1 on MG132-induced reduction in motor neuron number: reversed
Motor neurons [1]; 5 µM IU1 every other day with PR20, 5 d, p < 0.05
  effect of IU1 on PR20-induced motor neuron death: blocks the toxic effects; also recorded: rescued to control levels; also recorded: prevents this effect
Motor neurons [1]; 5 µM IU1 every other day, vehicle-treated cells, 5 d
  effect of IU1 alone on motor neuron survival: not toxic; also recorded: did not influence the survival

## CC(C)C[C@@H](C=O)NC(=O)[C@H](CC(C)C)NC(=O)[C@H](CC(C)C)NC(=O)OCc1ccccc1 [MG132, reference compound] (Cbz-Leu-Leu-Leu-aldehyde)
Motor neurons [1]; 150 nM MG132, 5 d, p = 0.001
  motor neuron number compared with all other experimental groups: statistically significantly fewer motor neurons
Dendra2; MG132 (10 µM), p = 3.23 × 10^−5
  Dendra2 half-life: 32.3 h
Dendra2-LC3; 10 µM MG132, primary spinal neurons
  extension of Dendra2-LC3 half-life compared with control: 11.9 h
Motor neurons [2]; added one time to mixed spinal cord cultures, counted 5 d later
  LD50, motor neuron number: 100 to 150 nM
[3]; 150 nM MG132 48 h, then 5 µM MG132 or vehicle 4 h, n = 6, p = 0.027
  proteasomal flux versus control: statistically significant reduction

## GR20: synthetic, HA-tagged dipeptide repeat protein: glycine/arginine repeated 20 times
Dendra2; 2 µM peptide, not significantly different from vehicle
  Dendra2 half-life: 31.0 h
Dendra2-LC3; 2 µM peptide, primary spinal neurons, single-cell optical pulse labeling
  extension of Dendra2-LC3 half-life compared with control: 1.5 h
[4]
  toxic concentration range: 10 to 30 µM
[5]; [6]
  period of maximal accumulation in cells: first hour
  time point at which immunoblot signal is undetectable: 24 h
[5]; 10 µM in media, continuous exposure, anti-HA immunoblot
  earliest detection in cell lysates: 15 min
[5]; 2-h pulse-chase, 10 µM
  lysate fractions with detectable Western blot signal at the 2-h time point: soluble fraction only
  time point by which signal diminishes to a barely detectable level: 4 h
[5]; immunoblot of mixed spinal cord culture lysates
  half-life of dipeptide in cells: on the orders of hours
[5]; single 2-h application of 2 µM
  detectability by immunoblotting in lysates: weakly detectable
Motor neurons [2]; 5 d
  toxicity to motor neurons at ∼20 times higher concentration than PR20: not toxic
[3]; peptide 48 h (PR20 2 µM), then MG-132 5 µM or vehicle 4 h, permutation test
  proteasomal flux (difference in ubiquitin +/- MG-132) versus vehicle: neither influenced total ubiquitin levels nor proteasomal flux
